Measurements reported in PubChem BioAssay (NCI).
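Results reflect a 48-hour exposure of cells in 96-well plates to compound at five concentrations. GI50 = concentration required for 50% inhibition of growth. At the TGI there is no net growth.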

Tests used:
Experiment in all cases: NCI tumour cell line growth inhibition, 48 h
LOX IMVI melanoma = tested on: LOX IMVI melanoma
K-562 leukemia = tested on: K-562 leukemia
HOP-92 NSCLC = tested on: HOP-92 NSCLC
M14 melanoma = tested on: M14 melanoma
SR leukemia = tested on: SR leukemia
SK-MEL-5 melanoma = tested on: SK-MEL-5 melanoma
MCF7 breast = tested on: MCF7 breast
ACHN renal = tested on: ACHN renal
UACC-62 melanoma = tested on: UACC-62 melanoma
NCI-H460 lung = tested on: NCI-H460 lung

Structure (SMILES)	GI50 (LOX IMVI melanoma)	TGI (LOX IMVI melanoma)	GI50 (K-562 leukemia)	TGI (K-562 leukemia)	GI50 (HOP-92 NSCLC)	TGI (HOP-92 NSCLC)	GI50 (M14 melanoma)	TGI (M14 melanoma)	GI50 (SR leukemia)	TGI (SR leukemia)	GI50 (SK-MEL-5 melanoma)	TGI (SK-MEL-5 melanoma)	GI50 (MCF7 breast)	TGI (MCF7 breast)	GI50 (ACHN renal)	TGI (ACHN renal)	GI50 (UACC-62 melanoma)	TGI (UACC-62 melanoma)	GI50 (NCI-H460 lung)	TGI (NCI-H460 lung)
O=C(Nc1cccc(-n2ccc3c(NC(=O)c4ccccc4)ncnc32)c1)Nc1ccc(Cl)c(C(F)(F)F)c1	2.82 µM	15 µM	1.61 µM	50 µM	0.556 µM	4.31 µM	1.75 µM	5.98 µM	2.35 µM	15 µM	2.2 µM	8.16 µM	1.49 µM	6.14 µM	1.59 µM	7.38 µM	1.77 µM	7.52 µM	2.13 µM	9.88 µM
CN(CCN)[C@H](CSSC[C@@H](c1ccccc1O)N(C)CCN)c1ccccc1O	–	28.5 µM	–	24.3 µM	–	35.6 µM	–	33.5 µM	–	11.5 µM	–	24.4 µM	–	> 52.7 µM	–	22.6 µM	–	24.5 µM	–	24.4 µM
CC(C)=CCC[C@@H](C)C1=C(O)C(N[C@H](C)c2ccccc2)=C(C)C(=O)C1=O	–	22.1 µM	–	> 60.7 µM	–	35.6 µM	–	> 31.7 µM	–	> 100 µM	–	13.1 µM	–	17.9 µM	–	17.1 µM	–	9.71 µM	–	> 40 µM
CO[C@@]12C[C@H](CNC(=O)c3ccc[nH]3)O[C@@H]1NC(=O)N2	–	> 100 µM	–	> 100 µM	–	> 100 µM	–	> 100 µM	–	> 100 µM	–	> 100 µM	–	> 100 µM	–	> 100 µM	–	> 100 µM	–	> 100 µM
CC(=O)OCC1OC(OCCCOP(=O)(OCCC#N)OCC2OC(n3cnc4c(N)ncnc43)C(OC(=O)c3ccccc3)C2OC(=O)c2ccccc2)C(OC(C)=O)C(OC(C)=O)C1OC(C)=O (stereo not given)	–	> 100 µM	–	> 100 µM	–	> 100 µM	–	> 100 µM	–	> 100 µM	–	> 100 µM	–	> 100 µM	–	> 100 µM	–	> 100 µM	–	> 100 µM
CC(C)c1cc(=O)[nH]c2cc(N)ccc12	–	> 100 µM	–	> 100 µM	–	> 100 µM	–	> 100 µM	–	> 100 µM	–	> 100 µM	–	> 100 µM	–	> 100 µM	–	> 100 µM	–	> 100 µM
Nc1nc(Sc2ccc([N+](=O)[O-])c3nonc23)c2[nH]cnc2n1	–	11.7 µM	–	2.41 µM	–	10.5 µM	–	8.72 µM	–	1.77 µM	–	7.8 µM	–	12 µM	–	10.4 µM	–	11.2 µM	–	10.7 µM
CNC(=O)[C@H](Cc1ccccc1)NC(=O)N(CCC#N)CCN(C(=O)N[C@@H](Cc1ccccc1)C(=O)OC)c1ccccc1	–	> 100 µM	–	> 100 µM	–	> 100 µM	–	> 100 µM	–	> 100 µM	–	> 100 µM	–	> 100 µM	–	> 100 µM	–	> 100 µM	–	> 100 µM
COCN1C(=O)[C@@H]2CCCN2C(=O)c2ccc(N)cc21	–	> 100 µM	–	> 100 µM	–	> 100 µM	–	> 100 µM	–	> 100 µM	–	> 100 µM	–	> 100 µM	–	> 100 µM	–	> 100 µM	–	> 100 µM
Nc1nc(N)c2nc(CN(C=O)c3ccc(C(=O)O)cc3)cnc2n1	–	> 100 µM	–	> 100 µM	–	> 100 µM	–	> 100 µM	–	> 100 µM	–	> 100 µM	–	> 100 µM	–	> 100 µM	–	> 100 µM	–	> 100 µM
CCOC(=O)C(O)(CC1=NC(C(=O)OC)(C(=O)OC)C(c2cccc(C=O)c2)O1)C(=O)OCC (stereo not given)	–	> 100 µM	–	> 100 µM	–	> 100 µM	–	> 100 µM	–	> 100 µM	–	> 100 µM	–	> 100 µM	–	> 100 µM	–	> 100 µM	–	> 100 µM
COC(=O)c1ccccc1C1CN=NC12Cc1ccc(C)cc1C2=O (stereo not given)	–	> 100 µM	–	> 100 µM	–	> 100 µM	–	> 100 µM	–	> 100 µM	–	> 100 µM	–	> 100 µM	–	> 100 µM	–	> 100 µM	–	> 100 µM
NC(=S)NNCC(=O)CC(O)(C(F)(F)F)C(F)(F)Cl (stereo not given)	–	> 100 µM	–	> 100 µM	–	> 100 µM	–	> 100 µM	–	> 100 µM	–	> 100 µM	–	> 100 µM	–	> 100 µM	–	> 100 µM	–	> 100 µM
O=c1c(-c2nc3ccccc3c3ccccc3c2=O)nc2ccccc2c2ccccc12	–	> 100 µM	–	> 100 µM	–	> 100 µM	–	> 100 µM	–	61 µM	–	86.2 µM	–	> 100 µM	–	> 100 µM	–	> 100 µM	–	> 100 µM
CN(C(=O)Cc1ccccc1)n1cn[n+](CC(=O)OC(C)(C)C)c1	–	> 10 µM	–	> 10 µM	–	> 10 µM	–	> 10 µM	–	> 10 µM	–	> 10 µM	–	> 10 µM	–	> 10 µM	–	> 10 µM	–	> 10 µM
Cc1nn2c(=O)c([N+](=O)[O-])c(/C=C/c3ccc(F)cc3)nc2s1	–	9.19 µM	–	> 31.6 µM	–	26.3 µM	–	16.4 µM	–	16.5 µM	–	15.8 µM	–	13.3 µM	–	20.6 µM	–	17.5 µM	–	22.9 µM
CC(=O)O[C@H]1[C@@H](N2CCOCC2)C[C@H]2[C@@H]3CC=C4C[C@@H](N5CCCC5)CC[C@]4(C)[C@H]3CC[C@@]21C	–	> 100 µM	–	> 100 µM	–	> 100 µM	–	> 100 µM	–	83.7 µM	–	> 100 µM	–	> 100 µM	–	> 100 µM	–	> 100 µM	–	> 100 µM
CCCOC(=O)c1cc(O)c(O)c(O)c1	–	30.8 µM	–	> 100 µM	–	> 100 µM	–	> 100 µM	–	> 100 µM	–	> 100 µM	–	> 100 µM	–	> 100 µM	–	> 100 µM	–	> 100 µM
CC1(C)N=C(C(N)=O)c2[nH]cnc2N1	–	> 100 µM	–	> 100 µM	–	> 100 µM	–	> 100 µM	–	> 100 µM	–	> 100 µM	–	> 100 µM	–	> 100 µM	–	> 100 µM	–	> 100 µM
NC1=Nc2cc(C(F)(F)F)ccc2Sc2nc3ccccc3n21	–	> 100 µM	–	> 100 µM	–	80.4 µM	–	> 43.2 µM	–	> 25.4 µM	–	> 100 µM	–	> 100 µM	–	> 100 µM	–	> 100 µM	–	> 100 µM
CC(C)(C)OC(=O)Cn1ncn(NC(=O)Cc2ccccc2)c1=S	–	> 10 µM	–	> 10 µM	–	> 10 µM	–	> 10 µM	–	> 10 µM	–	> 10 µM	–	> 10 µM	–	> 10 µM	–	> 10 µM	–	> 10 µM
NCCCN(CCCCN(CCCN)CCCc1ccccc1)CCCc1ccccc1	–	6.38 µM	–	3.57 µM	–	24.1 µM	–	3.57 µM	–	7.19 µM	–	3.36 µM	–	3.56 µM	–	9.24 µM	–	3.28 µM	–	2.72 µM
CCOP1(=O)CC(C)=C(Cl)C(OC)C1 (stereo not given)	–	> 100 µM	–	77.3 µM	–	> 100 µM	–	> 100 µM	–	> 100 µM	–	> 100 µM	–	> 100 µM	–	> 100 µM	–	> 100 µM	–	> 100 µM
COC(=O)CN1CCN(c2cccc3c2CCCC3)CC1	–	> 100 µM	–	> 100 µM	–	15.4 µM	–	> 100 µM	–	> 100 µM	–	60 µM	–	94.3 µM	–	> 100 µM	–	> 100 µM	–	> 100 µM
O=C1c2cc3c(cc2NC(c2ccccc2F)C1O)OCO3 (stereo not given)	–	> 100 µM	–	> 100 µM	–	> 100 µM	–	> 100 µM	–	> 37.9 µM	–	> 100 µM	–	> 100 µM	–	> 100 µM	–	64 µM	–	> 100 µM
CN(C)S(=O)(=O)c1ccc2[nH]c(O)c(C3=Nc4ccccc4C3=O)c2c1	–	> 100 µM	–	> 100 µM	–	46.8 µM	–	> 100 µM	–	35.9 µM	–	> 100 µM	–	> 100 µM	–	33.7 µM	–	34.9 µM	–	97.5 µM
O=C(/C=C/c1ccc(-c2ccccc2)cc1)NCc1ccc(C(=O)NCCc2ccccc2)cc1	–	> 100 µM	–	> 100 µM	–	> 100 µM	–	> 100 µM	–	> 100 µM	–	> 100 µM	–	> 100 µM	–	> 100 µM	–	> 100 µM	–	> 100 µM
